Results taken from the NIST ThermoML archive (doi:10.1016/j.fluid.2012.03.016).

Details: Pendant drop shape

C/C=C(\C)C(=O)[O-].C[N+](C)(C)CCO
Details	surface tension liquid-gas [mN/m]
294 K	31.6
303.9 K	30.7
314.2 K	30.7
323.9 K	30.9
333.5 K	30.2
338 K	29.8
340.1 K	29.9
346.2 K	29.9
348.2 K	28.5
357.4 K	28
362.5 K	28.2
373 K	27.6
379.5 K	26.1
391.8 K	26.4

C[N+](C)(C)CCO.O=C([O-])CCC(=O)O [2-hydroxy-N,N,N-trimethylethanaminium 3-carboxypropanoate]
Details	surface tension liquid-gas [mN/m]
308.2 K	40.7
313.9 K	40.4
319.2 K	40.1
324 K	39.5
328.5 K	39.5
333.6 K	38.9
339.4 K	38.4

CCC(=O)[O-].C[N+](C)(C)CCO [cholinium propanoate]
Details	surface tension liquid-gas [mN/m]
294 K	34.6
302.6 K	33.3
313.7 K	32.6
324.1 K	32.3
333.8 K	31.7
343.4 K	31.2
354.5 K	30.9
373.4 K	29.5
392.6 K	28.6
